Patent US20230134986A1, “GLUCOSE TRIPTOLIDE CONJUGATES AND USES THEREOF” (The Johns Hopkins University, priority 2020, published 2023)

How the values were obtained:
[1] = tested on: RPB1 (catalytic subunit of RNAPII); assay: RPB1 (RNAPII) degradation in HeLa cells, immunostaining and western blot; format: cell-based, human; parameters: endogenous RNAPII (RPB1) level: unit of the concentration uncertain; conditions: 1 (unit uncertain) compound 1, 24 h
Protocol: Western blot analysis. Whole cell lysates were prepared by adding lysis buffer [4% SDS, 20% glycerol, 10% 2-mercaptoethanol, 0.004% bromophenol blue, 0.125 M Tris-HCl (pH 6.8)] to the cell pellets for 30 minutes in ice followed by centrifugation at 12,000×g for 10 minutes then boiling for 5 minutes. For isolation of cytosolic and mitochondrial fractions of cytochrome C, cell pellets were resuspended in CLAMI buffer (250 mM sucrose, 70 mM KCl, […] digitonin in 1×PBS, protease inhibitor cocktail (1 tablet/10 ml CLAMI buffer)) then incubated on ice for 5 minutes. After centrifugation at 12,000×g for 5 minutes at 4° C., supernatant (cytoplasmic fraction) was collected and the pellet resuspended in lysis buffer as described above. Proteins were then separated by SDS-PAGE and transferred to nitrocellulose membranes (Bio-Rad). After blocking at room temperature for 1 h, membranes were incubated at 4′C overnight with the primary antibodies including anti-Rpb1 (Santa Cruz Biotechnology), anti-XPB (Biotechne), anti-Actin (Developmental Studies Hybridoma Bank), anti-GAPDH (Santa Cruz Biotechnology), anti-cytochrome C (Santa Cruz Biotechnology), anti-PARP1 (Santa Cruz Biotechnology), anti-cleaved caspase 3 (Cell Signaling Technology), anti-VDAC (ProteinTech), anti-HIF-1[…] (BD sciences), and anti-GLUT1 (Santa Cruz Biotechnology) antibodies followed by incubation with horseradish peroxidase-conjugated anti-mouse or anti-rabbit IgG (GE Healthcare) at room temperature for 2 hours. Antibody-protein complexes were detected using enhanced chemiluminescence (ECL) immunoblotting detection reagent (EMD Millipore).
Immunocytochemistry and cytochemistry. […] Glucose uptake was monitored by incubating cells in 200 μM 2-NBDG (ThermoFisher) for 6 hours prior to fixation. Fluorescence was observed under the Nikon Eclipse TE200 Inverted microscope (Nikon Instruments Inc., Melville, N.Y., USA). […] Rpb1 levels were measured using the MEASURE feature of ImageJ where all the background signals were subtracted from the intergrated density of nuclear Rpb1.

[2] = tested on: T7115 (C342T XPB knock-in HEK293T cells); assay: Proliferation of XPB C342T knock-in cell line T7115 ([3H]-thymidine incorporation); format: cell-based, human; conditions: C342T XPB knock-in versus isogenic WT 293T
Text: Cells and culture conditions. Primary astrocytes (Lonza, Walkersville, Md.; ABM™ Basal Media with AGM™ SingleQuots™ Supplement Pack), fibroblast (ATCC; Fibroblast Basal Medium (ATCC© PCS-201-030™) with Fibroblast Growth Kit-Serum-free (ATCC© PCS-201-040™)), airway epithelial cell (ATCC; Airway Epithelial Cell Basal Medium (ATCC© PCS-300-030™) with Bronchial Epithelial Cell Growth Kit (ATCC© PCS-300-040™)), renal proximal tubule (ATCC; Renal Epithelial Cell Basal Medium (ATCC© PCS-400-030™) with Renal Epithelial Cell Growth Kit (ATCC© PCS-400-040™)), prostate epithelial cell (Lonza; PrEGM™ BulletKit™) and mammary epithelial cell (Lonza; MEBM™ BulletKit™) were kept in a humidified incubator at 37° C. adjusted to 5% CO2. […]

## CC(C)[C@]12O[C@H]1[C@@H]1O[C@]13[C@]1(O[C@H]1C[C@H]1C4=C(CC[C@@]13C)C(=O)OC4)[C@@H]2OC(=O)CCCO[C@@H]1OC(CO)[C@@H](O)C(O)C1O (stereo in doubt) [Compound 1]
[1]
  endogenous RNAPII (RPB1) level: depletes endogenous RNA polymerase II
[2]
  sensitivity of T7115 mutant line (proliferation): resistant
